Data from patent publication US20220047587A1, “SYNERGISTIC COMPOSITIONS COMPRISING R-2-(SUBSTITUTED-SULFONYL)-HEXAHYDRO-PYRROLO[1,2-A]PYRAZIN-6(2H)-ONES AND S-2-(SUBSTITUTED-SULFONYL)-HEXAHYDRO-PYRROLO[1,2-A]PYRAZIN-6(2H)-ONES IN A NON-RACEMIC RATIO” (Metys Pharmaceuticals AG, priority 2018, published 2022).
Marks after values point to notes of the source that are not given here.

How the values were obtained:
paclitaxel-treated rats = experiment: Paclitaxel-induced peripheral sensory neuropathy model, hyperalgesia (paw pressure) after i.v. administration; type: in vivo, rat
Excerpt: (§1) Results are expressed as the minimum dose (via the indicated route) at which a statistically-significant difference is observed when compared to time-matched injured rats receiving a vehicle administration by the same route. An analysis of variance, ANOVA, followed by Fisher's protected least significant difference procedure for post hoc comparison, was used to verify significance between two means of hyperalgesic behavioral results from the Randall & Selitto apparatus paw pressure test (“anti-hyperalgesia”) or from the Von Frey test (“mechanical allodynia”) or from the Cold Plate test (“cold allodynia”). P values 0.05 were considered significant. This definition applies to any doses specified herein as inhibiting “in a statistically significant manner”.
(§2) Paw mechanical sensitivity was determined using a Randall & Selitto apparatus (Randall and Selitto, 1957) exerting a force that increases at constant rate (32 g/s). The stimulus causing paw withdrawal was evaluated before and at different times after treatment. Results represent the mean of mechanical thresholds for paw withdrawal expressed as grams. To avoid possible damage to the rat paw the maximum applied force was set at 240 g. In the single administration protocol, paw pressure tests were performed before (pre-dose) and at regular intervals after treatment.
Paclitaxel (2 mg/kg i.p.) was administered on days 1, 3, 5 and 8. Test compounds were dissolved in saline and administered intravenously at the dose of 1 mg/kg to adult male Sprague-Dawley rats (Charles River, Italy, 220-250 g weight). Data were obtained at 0-75 minutes after injection and are expressed as the mean±s.e.m. of six animals. *P<0.05 and **<0.01 vs vehicle+paclitaxel treated rats; °P<0.05 and ^°°P<0.01 vs. NT24336 (R) treated group. […] *P<0.05 and **<0.01 vss vehicle+paclitaxel treated rats.

scopolamine-treated mice = conditions: s.c., passive avoidance, cited from earlier work; for Amnesia reversal, %: at the lowest significant dose
[1] = tested on: streptozotocin-treated mice; experiment: Streptozotocin diabetic peripheral neuropathy model, thermal hyperalgesia after oral administration; type: in vivo, mouse; conditions: p.o.
Excerpt: as §1
Mice (=30 g) were injected intravenously in the tail with 200 mg/kg streptozotocin (Wako Pure Chemicals, Richmond, Va.) prepared in saline adjusted to pH 4.5 in 0.1 N citrate buffer. Age-matched non-diabetic control mice were injected with the vehicle alone. Streptozotocin solutions were freshly prepared due to the limited stability of the compound. Animals were kept in a group of four per cage with special care of food and water supplement. The bed of the cage was changed every day. […] The serum glucose level was measured by glucose oxidase method from blood samples obtained by tail vein pricking. […] Animals at 7 days post-streptozotocin treatment were used in the study. […] Injections were performed using a Hamilton microliter syringe fitted with a 26-gauge needle, according to the method of Haley and McCormick (1957). The site of injection was 2 mm caudal and 2 lateral to the bregma, and 3 mm in depth from the skull surface. The injection volume was 5 μl.

vincristine-treated rats = experiment: Vincristine-induced peripheral sensory neuropathy model, hyperalgesia after oral administration; type: in vivo, rat; conditions: p.o.
Excerpt: as §1, §2

CCI rats = experiment: Chronic constriction injury (CCI) model, mechanical allodynia after oral administration; type: in vivo, rat; conditions: p.o.
Excerpt: as §1
Each animal was placed in a chamber with a mesh metal floor covered by a plastic dome that enabled the animal to walk freely, but not to jump. The mechanical stimulus was then delivered in the mid-plantar skin of left hind paw using an electronic von Frey apparatus (37400 Dynamic Plantar Aesthesiometer, Ugo Basile, Comerio, Varese, Italy). The cut-off was set at 50 g, while the increasing force rate (ramp duration) was set at 20 s. In the single administration protocol, pain threshold measurements have been performed before (pre-dose) and at regular intervals after treatment. In the repeated treatment protocol, the pre-test value was measured 13 h after the last administration; afterward the animals received a new administration and measures were performed at the described times. Results are expressed in […] and represent the mean±S.E.M. of mechanical thresholds.
To evaluate the effect of test compounds in comparison to vehicle or selected comparators on mechanical hyperalgesia, the chronic constriction injury models in rats, a widely accepted model of painful neuropathy (Wang and Wang, 2003) was chosen.
Neuropathy was induced according to the procedure described by Bennett and Xie ([…]). Briefly, rats were anaesthetized with chloral hydrate 400 mg/kg i.p. under aseptic conditions, the right common sciatic nerve was exposed at the level of the middle thigh by blunt dissection. Proximal to the trifurcation, the nerve was carefully freed from the surrounding connective tissue and four chromic cat gut ligatures (4-0, Ethicon, Norderstedt, Germany) were tied loosely around it with about 1 mm spacing. After hemostasis was confirmed, the incision was closed in layers. Then animals were allowed to recover from anesthesia and surgery and were kept one per cage with free access to water and standard laboratory chow. This procedure induces the appearance of hyperalgesia and allodynia in response to mechanical stimuli, which are evident 2-5 days after injury and reach their maximum severity in about 14 days.

MIA-treated rats = experiment: MIA-induced knee osteoarthritis model, mechanical hyperalgesia after i.v. administration; type: in vivo, rat
Excerpt: as §1, §2
A single intra-articular injection of sodium monoiodoacetate (MIA) was introduced into the knee joint of rats according to the method described by Fernihough J et al., 2004. Sodium monoiodoacetate (MIA) inhibits chondrocyte metabolism leading to cartilage degradation in form of osteoarthritic-like focal lesions in the cartilage associated with subchondral bone thickening 14 days after administration (Guingamp et al., 1997). This model therefore can easily and quickly reproduce osteoarthritic-like lesions and functional impairment in rats, similar to that observed in human disease (Guzman et al., 2003). After 7 days post-injection, the inflammatory component subsides and the remaining pain is considered neuropathic in nature. Briefly, rats were deeply anaesthetized with diethyl ether. Following abolition of the hind paw pinch withdrawal reflex, a 27-gauge needle was introduced into the joint cavity between the tibial plateau and femoral condyles. Once in place, 2 mg of MIA were diluted in a volume of […] of 1% CMC (carboxymethylcellulose in water, Sigma-Aldrich, Italy) and injected into one knee joint and the rat was allowed to recover for 14 days prior to pain assessment.

oxaliplatin-treated rats = experiment: Oxaliplatin-induced peripheral sensory neuropathy model, hyperalgesia after oral administration; type: in vivo, rat; conditions: p.o.
Excerpt: as §1, §2
Peripheral sensory neuropathy was induced in adult rats, by administration of oxaliplatin (Tocris) at […] i.p. in saline once daily for 5 consecutive days every week for three weeks (cumulative dose 36 mg/kg) according to Cavaletti et al., 2001. Starting from day 21 after the first oxaliplatin administration, the effect of repeated oral administration of racemic unifiram or the preferred inventive composition with an enantiomeric excess of (R)-unifiram of 50% corresponding to a 3:1 (R):(S) ratio of the enantiomers on oxaliplatin-induced mechanical hyperalgesia was assessed.

Compound | Lowest dose at which paclitaxel-induced hyperalgesia is inhibited in a statistically significant manner (P < 0.05) (paclitaxel-treated rats; 15 min after administration) | Lowest dose at which paclitaxel-induced hyperalgesia is inhibited in a statistically significant manner (P < 0.05) (paclitaxel-treated rats; 30 min after administration) | Lowest dose at which paclitaxel-induced hyperalgesia is inhibited in a statistically significant manner (P < 0.05) (paclitaxel-treated rats; 45 min after administration) | Amnesia reversal, % (scopolamine-treated mice) | Lowest Dose at which scopolamine-induced amnesia is reversed in a statistically significant manner (P < 0.01) (scopolamine-treated mice) | Lowest dose at which streptozotocin-induced diabetese-like thermal hyperalgesia is inhibited in a statistically significant manner (P < 0.05) ([1]; 30 min after administration) | Lowest dose at which streptozotocin-induced diabetese-like thermal hyperalgesia is inhibited in a statistically significant manner (P < 0.05) ([1]; 60 min after administration) | Lowest dose at which streptozotocin-induced diabetese-like thermal hyperalgesia is inhibited in a statistically significant manner (P < 0.05) ([1]; 90 min after administration) | also measured
O=C1CCC2CN(S(=O)(=O)c3ccc(F)cc3)CCN12 (racemic) [NT-24617, (RS)-2-[(4-fluorophenyl)sulfonyl]hexahydropyrrolo[1,2-a]pyrazin-6-one] | 3* mg/kg | 3 mg/kg | 3 mg/kg | 100% | 0.001 mg/kg | – | – | – | Lowest dose at which paclitaxel-induced hyperalgesia is inhibited in a statistically significant manner (P < 0.05) (paclitaxel-treated rats; 60 min after administration): >3 mg/kg
CNCC[C@H](Oc1cccc2ccccc12)c1cccs1 [Duloxetine, reference compound] | – | – | – | – | – | 30 mg/kg | 30 mg/kg | 30 mg/kg | Lowest dose at which streptozotocin-induced diabetese-like thermal hyperalgesia is inhibited in a statistically significant manner (P < 0.05) ([1]; 120 min after administration): 30 mg/kg
O=C1CCC2CN(S(=O)(=O)c3ccc(F)cc3)CCN12 (centres unmarked) [NT-24234, 2-(4-fluorophenyl)sulfonyl-hexahydropyrrolo[1,2-a]pyrazin-6(2H)-one] | 1 mg/kg | 3 mg/kg | >10 mg/kg | 78% | 0.003 mg/kg | – | – | – | –
O=C1CCC2CN(S(=O)(=O)c3ccc(F)cc3)CCN12 (centres unmarked) [NT-24266, 2-(4-fluorophenyl)sulfonyl-hexahydropyrrolo[1,2-a]pyrazin-6(2H)-one] | 1 mg/kg | 3 mg/kg | >10 mg/kg | 75% | 0.001 mg/kg | – | – | – | –
O=C1CC[C@@H]2CN(S(=O)(=O)c3ccccc3F)CCN12 [NT-24336, 2-(2-fluorobenzenesulfonyl)hexahydropyrrolo[1,2-a]pyrazin-6-one] | 3 mg/kg | 3 mg/kg | 3 mg/kg | – | – | 30 mg/kg | 30 mg/kg | 30 mg/kg | Lowest dose at which vincristine-induced hyperalgesia is inhibited in a statistically significant manner (P < 0.05) (vincristine-treated rats; 30 min after administration): 10 mg/kg; Lowest dose at which vincristine-induced hyperalgesia is inhibited in a statistically significant manner (P < 0.05) (vincristine-treated rats; 60 min after administration): 10 mg/kg; Lowest dose at which vincristine-induced hyperalgesia is inhibited in a statistically significant manner (P < 0.05) (vincristine-treated rats; 90 min after administration): 10 mg/kg; Lowest dose at which vincristine-induced hyperalgesia is inhibited in a statistically significant manner (P < 0.05) (vincristine-treated rats; 120 min after administration): >10 mg/kg; Lowest dose at which streptozotocin-induced diabetese-like thermal hyperalgesia is inhibited in a statistically significant manner (P < 0.05) ([1]; 120 min after administration): 30 mg/kg; Lowest dose at which CCI-induced mechanical allodynia is inhibited in a statistically significant manner (P < 0.05) (CCI rats; 30 min after administration): 1 mg/kg; Lowest dose at which CCI-induced mechanical allodynia is inhibited in a statistically significant manner (P < 0.05) (CCI rats; 60 min after administration): 3 mg/kg; Lowest dose at which CCI-induced mechanical allodynia is inhibited in a statistically significant manner (P < 0.05) (CCI rats; 90 min after administration): 3 mg/kg; Lowest dose at which MIA-induced mechanical hyperalgesia is inhibited in a statistically significant manner (P < 0.05) (MIA-treated rats; 15 min after administration): 3 mg/kg; Lowest dose at which MIA-induced mechanical hyperalgesia is inhibited in a statistically significant manner (P < 0.05) (MIA-treated rats; 30 min after administration): 3 mg/kg; Lowest dose at which MIA-induced mechanical hyperalgesia is inhibited in a statistically significant manner (P < 0.05) (MIA-treated rats; 45 min after administration): 3 mg/kg; Lowest dose at which oxaliplatin-induced hyperalgesia is inhibited in a statistically significant manner (P < 0.05) (oxaliplatin-treated rats; 30 min after administration): 1 mg/kg; Lowest dose at which oxaliplatin-induced hyperalgesia is inhibited in a statistically significant manner (P < 0.05) (oxaliplatin-treated rats; 60 min after administration): 1 mg/kg; Lowest dose at which oxaliplatin-induced hyperalgesia is inhibited in a statistically significant manner (P < 0.05) (oxaliplatin-treated rats; 90 min after administration): 1 mg/kg; Lowest dose at which oxaliplatin-induced hyperalgesia is inhibited in a statistically significant manner (P < 0.05) (oxaliplatin-treated rats; 120 min after administration): >10 mg/kg
O=C1CCC2CN(S(=O)(=O)c3cccc(F)c3)CCN12 (centres unmarked) [NT-24337, 2-(3-fluorophenyl)sulfonyl-hexahydropyrrolo[1,2-a]pyrazin-6(2H)-one] | 3 mg/kg | 3 mg/kg | 3 mg/kg | – | – | 10 mg/kg | 10 mg/kg | 10 mg/kg | Lowest dose at which CCI-induced mechanical allodynia is inhibited in a statistically significant manner (P < 0.05) (CCI rats; 30 min after administration): 1 mg/kg; Lowest dose at which CCI-induced mechanical allodynia is inhibited in a statistically significant manner (P < 0.05) (CCI rats; 60 min after administration): 1 mg/kg; Lowest dose at which CCI-induced mechanical allodynia is inhibited in a statistically significant manner (P < 0.05) (CCI rats; 90 min after administration): 3 mg/kg; Lowest dose at which MIA-induced mechanical hyperalgesia is inhibited in a statistically significant manner (P < 0.05) (MIA-treated rats; 15 min after administration): 3 mg/kg; Lowest dose at which MIA-induced mechanical hyperalgesia is inhibited in a statistically significant manner (P < 0.05) (MIA-treated rats; 30 min after administration): 3 mg/kg; Lowest dose at which MIA-induced mechanical hyperalgesia is inhibited in a statistically significant manner (P < 0.05) (MIA-treated rats; 45 min after administration): 3 mg/kg
O=C1CCC2CN(S(=O)(=O)c3cccc(F)c3)CCN12 (centres unmarked) [NT-24782, 2-(3-fluorophenyl)sulfonyl-hexahydropyrrolo[1,2-a]pyrazin-6(2H)-one] | >3 mg/kg | >3 mg/kg | >3 mg/kg | – | – | – | – | – | –
